Assay results published in patent US9365583B2, “Substituted pyrazoles and uses thereof” (Genentech, Inc., priority 2013, dated 2016).

Target: T1, N-terminally GST-tagged DLK (catalytic domain amino acid 1-520) (Homo sapiens, UniProt Q12852)
T1 construct: N-terminally GST-tagged DLK (catalytic domain amino acid 1-520); purchased Carna Bioscience
T1 sequence (Q12852 1-520): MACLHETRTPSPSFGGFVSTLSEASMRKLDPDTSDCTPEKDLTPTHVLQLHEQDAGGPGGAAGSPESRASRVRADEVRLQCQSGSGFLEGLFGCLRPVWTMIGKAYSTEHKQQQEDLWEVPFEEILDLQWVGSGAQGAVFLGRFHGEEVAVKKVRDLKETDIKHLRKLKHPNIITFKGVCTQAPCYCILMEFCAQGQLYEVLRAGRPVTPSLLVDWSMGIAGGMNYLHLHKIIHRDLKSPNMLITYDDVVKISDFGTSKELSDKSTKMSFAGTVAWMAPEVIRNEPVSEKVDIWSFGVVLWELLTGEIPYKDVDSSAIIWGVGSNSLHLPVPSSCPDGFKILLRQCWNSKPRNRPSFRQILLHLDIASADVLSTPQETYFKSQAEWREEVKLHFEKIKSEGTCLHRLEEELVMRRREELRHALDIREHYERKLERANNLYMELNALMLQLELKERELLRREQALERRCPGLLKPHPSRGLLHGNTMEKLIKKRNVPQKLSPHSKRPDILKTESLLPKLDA
Test: DLK TR-FRET inhibition assay
Assay type: biochemical
Conditions: 5 nM GST-DLK, 40 nM HIS-MKK4 K131M substrate, 30 μM ATP, 60 minutes at ambient temperature
Outline: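 Phosphorylated MKK4 was quantified by TR-FRET (Eu-labelled anti-phospho-MKK4, D2 anti-HIS; 3 h, 665 and 615 nm emission) after EDTA quench. Reactions held 5 nM GST-tagged DLK catalytic domain (1-520), 40 nM HIS-MKK4 K131M substrate, 30 μM ATP and compound (3-fold series from 20 uM), 60 min, room temperature, pH 7.5.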

`CC(C)n1nc(-c2cnc(N)c(OC(F)F)c2)cc1[C@H]1[C@@H]2C[C@H](N3CCN(C)C[C@@H]3C)C[C@@H]21` [compound 238, 3-(difluoromethoxy)-5-(5-((1R,3r,5S,6S)-3-((S)-2,4-dimethyl-piperazin-1-yl)bicyclo[3.1.0]hexan-6-yl)-1-isopropyl-1H-pyrazol-3-yl)pyridin-2-amine] and `CC(C)n1nc(-c2cnc(N)c(OC(F)F)c2)cc1[C@H]1[C@@H]2C[C@@H](N3CCN(C)C[C@@H]3C)C[C@@H]21` [compound 241, 3-(difluoromethoxy)-5-(5-((1R,3s,5S,6S)-3-((S)-2,4-dimethyl-piperazin-1-yl)bicyclo[3.1.0]hexan-6-yl)-1-isopropyl-1H-pyrazol-3-yl)pyridin-2-amine] are within 1.5-fold of each other in Ki: 1.6 nM for the first, 2 nM for the second.

`CC(C)n1nc(-c2cnc(N)c(C(F)(F)F)c2)cc1[C@H]1[C@@H]2C[C@@H](N3CCN(C)C[C@@H]3C)C[C@@H]21` [compound 239, 5-(5-((1R,3s,5S,6S)-3-((S)-2,4-dimethylpiperazin-1-yl)bicyclo [3.1.0]hexan-6-yl)-1-isopropyl-1H-pyrazol-3-yl)-3-(trifluoromethyl) pyridin-2-amine] and `CC(C)n1nc(-c2cnc(N)c(C(F)(F)F)c2)cc1[C@H]1[C@@H]2C[C@H](N3CCN(C)C[C@@H]3C)C[C@@H]21` [compound 242, 5-(5-((1R,3r,5S,6S)-3-((S)-2,4-dimethylpiperazin-1-yl)bicyclo [3.1.0]hexan-6-yl)-1-isopropyl-1H-pyrazol-3-yl)-3-(trifluoromethyl) pyridin-2-amine] are within 1.5-fold of each other in Ki: 1.7 nM for the first, 2.1 nM for the second.

Going from `CC(C)n1nc(-c2cnc(N)c(OC(F)(F)F)c2)cc1[C@H]1[C@@H]2C[C@H](N3CCN(C)C[C@@H]3C)C[C@@H]21` [compound 240, 5-(5-((1R,3r,5S,6S)-3-((S)-2,4-dimethylpiperazin-1-yl)bicyclo [3.1.0]hexan-6-yl)-1-isopropyl-1H-pyrazol-3-yl)-3-(trifluoromethoxy) pyridin-2-amine] to `CC(C)n1nc(-c2cnc(N)c(OC(F)(F)F)c2)cc1[C@H]1[C@@H]2C[C@H](N3CCNCC3)C[C@@H]21` [compound 244, 5-(1-isopropyl-5-((1R,3r,5S,6r)-3-(piperazin-1-yl)bicyclo[3.1.0]hexan-6-yl)-1H-pyrazol-3-yl)-3 - (trifluoromethoxy)pyridin-2-amine], the Ki falls from 2.1 nM to 1.1 nM (1.9-fold).

`Nc1ncc(-c2cc([C@H]3[C@@H]4C[C@@H](N5CCCOCC5)C[C@@H]43)n(CC(F)F)n2)cc1OC(F)(F)F` [compound 243, 5-(5-((1R,3s,5S,6r)-3-(1,4-oxazepan-4-yl)bicyclo[3.1.0]hexan-6-yl)-1-(2,2-difluoroethyl)-1H-pyrazol-3-yl)-3-(trifluoromethoxy) pyridin-2-amine] and `Nc1ncc(-c2cc([C@H]3[C@@H]4C[C@H](N5CCCOCC5)C[C@@H]43)n(CC(F)F)n2)cc1OC(F)(F)F` [compound 256, 5-(5-((1R,3r,5S,6r)-3-(1,4-oxazepan-4-yl)bicyclo[3.1.0]hexan-6-yl)-1-(2,2-difluoroethyl)-1H-pyrazol-3-yl)-3-(trifluoromethoxy) pyridin-2-amine] are the same in Ki: 1.1 nM for the first, 1.1 nM for the second.

`CC(C)n1nc(-c2cnc(N)c(OC(F)(F)F)c2)cc1[C@H]1[C@@H]2C[C@@H](N3CCNCC3)C[C@@H]21` [compound 245, 5-(1-isopropyl-5-((1R,3s,5S,6r)-3-(piperazin-1-yl)bicyclo[3.1.0]hexan-6-yl)-1H-pyrazol-3-yl)-3-(trifluoromethoxy)pyridin-2-amine] and `COC1CCN([C@@H]2C[C@@H]3[C@H](C2)[C@H]3c2cc(-c3cnc(N)c(OC(F)(F)F)c3)nn2C(C)C)CC1` [compound 246, 5-(1-isopropyl-5-((1R,3s,5S,6r)-3-(4-methoxypiperidin-1-yl)bicyclo[3.1.0]hexan-6-yl)-1H-pyrazol-3-yl)-3-(trifluoromethoxy) pyridin-2-amine] are within 1.5-fold of each other in Ki: 2.6 nM for the first, 1.8 nM for the second.

`COC1CCN([C@H]2C[C@@H]3[C@H](C2)[C@H]3c2cc(-c3cnc(N)c(OC(F)F)c3)nn2C(C)C)CC1` [compound 247, 3-(difluoromethoxy)-5-(1-isopropyl-5-((1R,3r,5S,6r)-3-(4-methoxypiperidin-1-yl)bicyclo[3.1.0]hexan-6-yl)-1H-pyrazol-3-yl) pyridin-2-amine] and `COC1CCN([C@@H]2C[C@@H]3[C@H](C2)[C@H]3c2cc(-c3cnc(N)c(OC(F)F)c3)nn2C(C)C)CC1` [compound 250, 3-(difluoromethoxy)-5-(1-isopropyl-5-((1R,3s,5S,6r)-3-(4-methoxy-piperidin-1-yl)bicyclo[3.1.0]hexan-6-yl)-1H-pyrazol-3-yl) pyridin-2-amine] are within 1.5-fold of each other in Ki: 2.9 nM for the first, 2 nM for the second.

`COC1CCN([C@H]2C[C@@H]3[C@H](C2)[C@H]3c2cc(-c3cnc(N)c(OC(F)(F)F)c3)nn2C(C)C)CC1` [compound 248, 5-(1-isopropyl-5-((1R,3r,5S,6r)-3-(4-methoxypiperidin-1-yl)bicyclo[3.1.0]hexan-6-yl)-1H-pyrazol-3-yl)-3-(trifluoromethoxy) pyridin-2-amine] and `COC1CCN([C@@H]2C[C@@H]3[C@H](C2)[C@H]3c2cc(-c3cnc(N)c(C(F)(F)F)c3)nn2C(C)C)CC1` [compound 249, 5-(1-isopropyl-5-((1R,3s,5S,6r)-3-(4-methoxypiperidin-1-yl)bicyclo[3.1.0]hexan-6-yl)-1H-pyrazol-3-yl)-3-(trifluoromethyl) pyridin-2-amine] are within 1.5-fold of each other in Ki: 2.8 nM for the first, 2.6 nM for the second.

Going from `COC1CCN([C@H]2C[C@@H]3[C@H](C2)[C@H]3c2cc(-c3cnc(N)c(C(F)(F)F)c3)nn2C(C)C)CC1` [compound 251, 5-(1-isopropyl-5-((1R,3r,5S,6r)-3-(4-methoxypiperidin-1-yl)bicyclo[3.1.0]hexan-6-yl)-1H-pyrazol-3-yl)-3-(trifluoromethyl) pyridin-2-amine] to `CC(C)n1nc(-c2cnc(N)c(C(F)(F)F)c2)cc1[C@H]1[C@@H]2C[C@H](N3CCN4CCCC4C3)C[C@@H]21` (stereo partly drawn) [compound 262, 5-(5-((1R,3r,5S,6r)-3-(hexa-hydropyrrolo[1,2-a]pyrazin-2(1H)-yl)bicyclo[3.1.0]hexan-6-yl)-1-isopropyl-1H-pyrazol-3-yl)-3-(trifluoromethyl)pyridin-2-amine], the Ki falls from 2.7 nM to less than 0.1 nM. The second binds more tightly here.

Compared with `CC(C)n1nc(-c2cnc(N)c(OC(F)F)c2)cc1[C@H]1[C@@H]2C[C@H](NCC(F)F)C[C@@H]21` [compound 252, 5-(5-((1R,3r,5S,6r)-3-((2,2-difluoro-ethyl)amino)bicyclo[3.1.0]hexan-6-yl)-1-isopropyl-1H-pyrazol-3-yl)-3-(difluoromethoxy) pyridin-2-amine], `CC(C)n1nc(-c2cnc(N)c(OC(F)F)c2)cc1[C@H]1[C@@H]2C[C@@H](NCC(F)F)C[C@@H]21` [compound 255, 5-(5-((1R,3s,5S,6r)-3-((2,2-difluoroethyl)amino)bicyclo[3.1.0]hexan-6-yl)-1-isopropyl-1H-pyrazol-3-yl)-3-(difluoromethoxy) pyridin-2-amine] is 2-fold lower in Ki: 3 nM for the first, 1.5 nM for the second. The second binds more tightly here.

`CC(C)n1nc(-c2cnc(N)c(C(F)(F)F)c2)cc1[C@H]1[C@@H]2C[C@H](NCC(F)F)C[C@@H]21` [compound 253, 5-(5-((1R,3r,5S,6r)-3-((2,2-difluoroethyl)amino)bicyclo[3.1.0]hexan-6-yl)-1-isopropyl-1H-pyrazol-3-yl)-3-(trifluoromethyl) pyridin-2-amine] and `CC(C)n1nc(-c2cnc(N)c(C(F)(F)F)c2)cc1[C@H]1[C@@H]2C[C@@H](NCC(F)F)C[C@@H]21` [compound 254, 5-(5-((1R,3s,5S,6r)-3-((2,2-difluoroethyl)amino)bicyclo[3.1.0]hexan-6-yl)-1-isopropyl-1H-pyrazol-3-yl)-3-(trifluoromethyl) pyridin-2-amine] are within 1.5-fold of each other in Ki: 3.4 nM for the first, 2.4 nM for the second.

Going from `CC(C)n1nc(-c2cnc(N)c(OC(F)F)c2)cc1[C@H]1[C@@H]2C[C@@H](N3CCN(CC(F)F)CC3)C[C@@H]21` [compound 257, 5-(5-((1R,3s,5S,6r)-3-(4-(2,2-difluoro-ethyl)piperazin-1-yl)bicyclo [3.1.0]hexan-6-yl)-1-isopropyl-1H-pyrazol-3-yl)-3-(difluoromethoxy)pyridin-2-amine] to `CC(C)n1nc(-c2cnc(N)c(OC(F)F)c2)cc1[C@H]1[C@@H]2C[C@H](N3CCN(CC(F)F)CC3)C[C@@H]21` [compound 264, 5-(5-((1R,3r,5S,6r)-3-(4-(2,2-difluoroethyl)piperazin-1-yl)bicyclo [3.1.0]hexan-6-yl)-1-isopropyl-1H-pyrazol-3-yl)-3-(difluoromethoxy)pyridin-2-amine], the Ki rises from 0.7 nM to 1.8 nM (2.6-fold).

For `CC(C)n1nc(-c2cnc(N)c(OC(F)F)c2)cc1[C@H]1[C@@H]2C[C@H](N3CCN4CCCC4C3)C[C@@H]21` (stereo partly drawn) [compound 260, 3-(difluoromethoxy)-5-(5-((1R,3r,5S,6r)-3-(hexahydropyrrolo [1,2-a]pyrazin-2(1H)-yl)bicyclo [3.1.0]hexan-6-yl)-1-isopropyl-1H-pyrazol-3-yl)pyridin-2-amine], the Ki was 0.4 nM.
